From patent US20230233500A1, “Gasdermin D (GSDMD) Succination for the Treatment of Inflammatory Disease” (University of Massachusetts, priority 2020, published 2023)
“Also recorded” adds a separate entry of the source. Counter-ions that a name gives are not always drawn.

Tests used:
GSDMD [1] = target: T1, GSDMD (Mus musculus, UniProt Q9D8T2); experiment: Tandem MS of GSDMD immunoprecipitated from treated BMDMs; format: cell-based; settings: GSDMD immunoprecipitated from fumarate treated BMDMs
T1 construct: We also immunoprecipitated GSDMD from fumarate treated BMDMs; endogenous in cells; host or cells: primary mouse BMDMs
T1 sequence (Q9D8T2 1-487): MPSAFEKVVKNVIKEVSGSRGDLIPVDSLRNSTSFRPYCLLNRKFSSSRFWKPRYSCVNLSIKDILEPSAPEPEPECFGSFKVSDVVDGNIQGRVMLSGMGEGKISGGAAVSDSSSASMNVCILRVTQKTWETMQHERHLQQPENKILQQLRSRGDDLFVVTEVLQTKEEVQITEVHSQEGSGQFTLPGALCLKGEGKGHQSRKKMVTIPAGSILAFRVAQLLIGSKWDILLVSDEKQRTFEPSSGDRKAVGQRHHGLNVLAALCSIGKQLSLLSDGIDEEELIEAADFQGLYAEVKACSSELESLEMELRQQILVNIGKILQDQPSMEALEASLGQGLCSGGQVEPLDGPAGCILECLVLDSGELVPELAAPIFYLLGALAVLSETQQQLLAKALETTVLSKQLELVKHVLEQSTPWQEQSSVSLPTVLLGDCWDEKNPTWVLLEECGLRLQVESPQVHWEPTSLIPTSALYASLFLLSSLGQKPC

[2] = system: LPS septic shock in WT mice; experiment: LPS septic shock model; format: in vivo, mouse
Experimental: FIGS. 1A-L. Fumarate inhibits pyroptosis. Bone marrow-derived macrophages (BMDMs) were treated as indicated and LDH, IL-1β or TNF-α measured by ELISA (A-C), GSDMD/β-actin by immunoblotting (D) or permeabilization of cells to SYTOX orange (E-F). GSDMD oligomerization in native and reduced cell lysates treated as above (G). Timecourse of permeabilization to SYTOX orange or GSDMD-N formation in cells treated as indicated (H-I). Survival rates of WT mice after 50 mg/kg of LPS (n−10) or LPS+fumarate (n=9) (J). Levels of IL-1β or TNF-α from serum of WT mice at 5 hours post-intraperitoneal injection with 5 mg/kg LPS (n=6) or control PBS (n=3) (K, L). A, B, C, I and are pooled from three independent experiments. D, E, F, G, H and I are representative from three independent experiments. J, K, L data points indicate individual mice. *, P<0.05, **, P<0.01; ***, P<0.001; ****, P<0.0001) (J, Mantel Cox survival analysis; A-C, K Two-way ANOVA). Error bars show means±SEM.
FIGS. 8A-B. Fumarate inhibits pyroptosis in vivo. (A-B) LC/MS Fumarate quantification in splenocytes (A) and IL-1 ELISA analysis (B) in serum from WT C57/BL6 mice administered FHIN2 (50 mg/kg) by IP injection followed by LPS (10 mg/kg) by IP injection for 5 hours. Data points indicative of individual mice. **, P<0.01 (Two-way ANOVA). Error bars show means±SEM.
Conditioned media or serum was collected as indicated and IL-1β or TNF-α, were quantified by sandwich ELISA (R&D Systems).
Mice aged 8-12 weeks were administered LPS 5 mg/kg by intraperitoneal injection. Serum was collected after 5 h for ELISA analysis. For survival studies, mice were administered LPS 50 mg/kg intraperitoneally and monitored every 12 h for up to 96 h.

GSDMD [3] = target: T1, GSDMD; experiment: MMF-Yne click chemistry labeling and streptavidin pulldown in BMDM lysates; format: binding
Experimental: FIG. 10. Illustrative schematic of click-chemistry based proteomics. Schematic representation of MMF-Yne proteomics. Primary WT BMDMs were treated with LPS for 2 hrs, MMF-Yne for 1 hour and nigericin (10 μM) for 1 hour. Lysates were subsequently Cu2+ clicked using a biotin-azide and streptavidin beads for pulldown of MMF-Yne interacting proteins. Streptavidin beads were digested using trypsin, reduced and alkylated and subjected to mass spec analysis.
Cells treated with or without the MMF-Alkyne probe were lysed and quantified by protein DC assay. Proteome samples (2 mg/ml) were incubated with TCEP, TBTA ligand, copper sulphate and Biotin Azide for 1 hour at room temperature with vortexing every 15 minutes. Precipitated proteins were centrifuged for 5 minutes at 4,600 g. Protein pellets were washed twice with ice cold methanol and sonicated in 1.2% SDS. Samples were heated at 95° C. for 5 minutes and diluted to a final volume of […] with PBS (0.2% SDS). An aliquot of the post-clicked lysate was retained and the remainder was incubated with streptavidin beads on a rotator overnight at 4 C. Samples were rotated at room temperature for 2 hours to resolubilize the SDS. Beads were washed five times with 0.2% SDS/PBS and placed on a rotator for 10 minutes in between washes. Beads were washed with ultra-pure water a further 3 times. […]

h.GSDMD = target: T2, h.GSDMD (Homo sapiens, UniProt P57764); experiment: In vitro succination reaction with LC-MS/MS peptide mapping; format: binding; settings: recombinant h.GSDMD
T2 sequence (P57764 1-484): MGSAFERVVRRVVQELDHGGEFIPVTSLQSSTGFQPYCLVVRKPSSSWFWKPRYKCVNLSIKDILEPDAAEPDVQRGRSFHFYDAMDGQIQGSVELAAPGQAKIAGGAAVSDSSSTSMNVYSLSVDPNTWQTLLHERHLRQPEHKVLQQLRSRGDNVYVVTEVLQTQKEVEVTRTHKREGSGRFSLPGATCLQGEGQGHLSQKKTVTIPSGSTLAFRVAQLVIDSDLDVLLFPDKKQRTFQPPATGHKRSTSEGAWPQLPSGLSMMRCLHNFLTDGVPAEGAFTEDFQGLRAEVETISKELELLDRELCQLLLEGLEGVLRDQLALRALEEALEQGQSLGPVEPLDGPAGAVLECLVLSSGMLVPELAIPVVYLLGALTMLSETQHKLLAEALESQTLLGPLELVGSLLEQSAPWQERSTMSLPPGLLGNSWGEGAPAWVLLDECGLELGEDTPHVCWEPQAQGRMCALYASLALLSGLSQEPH

## COC(=O)/C=C/C(=O)OC [Fumarate, Dimethyl fumarate]
GSDMD [1]
  2-monomethyl and 2-dimethyl succination sites of GSDMD in cells: Cys^192; also recorded: Cys^57; also recorded: Cys^77
[2]; 5 hours after ip LPS 5 mg/kg
  serum IL-1β levels: reduced
  serum TNF-α levels: not
[2]; lethal dose LPS 50 mg/kg, single dose of fumarate
  survival: increased survival
GSDMD [3]; streptavidin pulldown from clicked lysates
  MMF-Yne labeling of GSDMD in presence of competitor: blocked
GSDMD [3]; streptavidin-IR dye immunoblot
  MMF-Yne signal in pyroptotic lysates in presence of unlabeled competitor: reduced
h.GSDMD
  In vitro cysteine succination sites: same cysteines
h.GSDMD; listed as DMF
  In vitro cysteine succination sites: Cys309; also recorded: Cys467; also recorded: Cys56; also recorded: Cys191; also recorded: Cys268
